{"source": "patent US20240026314A1", "about": "“POLYPEPTIDES FOR USE IN THE SYNTHESIS OF BIOACTIVE PHENOLIC COMPOUNDS” (priority 2020, published 2024)", "key": {"CsOMT21": {"test_system": "CsOMT21", "assay": "O-methyltransferase enzyme assay with recombinant CsOMT21", "assay_type": "biochemical, Cannabis sativa", "conditions": "1 mM substrate, [14C]-SAM, 30 min at 37° C."}, "CsOMT1": {"test_system": "CsOMT1", "assay": "O-methyltransferase enzyme assay with recombinant CsOMT1", "assay_type": "biochemical, Cannabis sativa", "conditions": "compound as substrate, 1 mM, [14C]-SAM methyl donor, relative to dihydroresveratrol"}, "[1]": {"test_system": "human leukemia cell line HL60", "conditions": "cited from earlier work"}, "[2]": {"test_system": "colon cancer cell line SW480", "conditions": "cited from earlier work"}, "sarcoma S-180": {"test_system": "sarcoma S-180", "conditions": "cited from earlier work"}, "CsOMT6": {"test_system": "CsOMT6", "assay": "O-methyltransferase enzyme assay with recombinant CsOMT6", "assay_type": "biochemical, Cannabis sativa", "conditions": "1 mM substrate, [14C]-SAM, 30 min at 37° C."}, "[3]": {"substrate": "Oc1ccc(CCc2cc(O)cc(O)c2)cc1", "assay": "Enzyme kinetics (Michaelis-Menten) of recombinant CsOMT1 O-methyltransferase with dihydroresveratrol as substrate (FIG. 6C)", "assay_type": "biochemical, Cannabis sativa", "conditions": "other: substrate dihydroresveratrol, standard assay conditions (50 mM Tris-HCl, pH 7.5, 5 mM MgCl2, 10% glycerol, 37° C, [14C]-SAM methyl donor), non-linear regression, Michaelis-M", "method": "FIG. 6. Enzymatic methylation activity of CsOMT1. (A) Reaction catalyzed by CsOMT1. (B) Representative chromatogram showing the reaction products resolved by HPLC that illustrates the separation of the methylated dihydroresveratrol from its corresponding substrate (dihydroresveratrol, DHR). The identity of 3-O-methyl-dihydroresveratrol (pinobistilbene) was structurally determined by NMR. (C) Kinetic analysis of CsOMT1. Recombinant CsOMT1 was assayed under standard assay conditions at the indicated concentrations of dihydroresveratrol. Kinetic parameters were determined by non-linear regression analysis using the Michaelis-Menten kinetics model of the SigmaPlot 12.3 software.\nExpression of recombinant prenyltransferases in E. coli. In typical aspects, open reading frames encoding soluble aromatic prenyltransferases from bacteria or fungi, for example NphB, HypSC, CloQ, NovQ, Fur7, or PpzP are synthesized commercially. […]\nRecombinant protein expression of CsOMTs in E. coli. Open reading frames corresponding to O-methyltransferases from C. sativa are synthesized by commercially. […]\nO-methyltransferase enzyme assays. […] The enzymatic products are extracted with four volumes of ethyl acetate and quantified using a scintillation counter. […] The eluted products are detected by absorption at the 210-350 nm range and quantified relative to authentic standards. […]"}}, "note": "Where two headings read alike, the source gives them in different places.", "data": [{"molecule": "O=c1cc(-c2ccc(O)c(O)c2)oc2cc(O)cc(O)c12", "note": "[luteolin]", "values": [{"measurement": "methylation of substrate", "setting": "CsOMT21", "value": "able to methylate"}]}, {"molecule": "COc1cc(O)cc(CCc2cccc(O)c2)c1", "note": "[batatasin III]", "values": [{"measurement": "O-methyltransferase activity relative to that with DHR", "setting": "CsOMT1", "value": "about 25%"}]}, {"molecule": "CC(C)=CCc1cc(/C=C/C(=O)O)cc(CC=C(C)C)c1O", "note": "[artepillin C]", "values": [{"measurement": "apoptotic events", "setting": "[1]", "value": "induce apoptotic events"}, {"measurement": "apoptotic events", "setting": "[2]", "value": "induce apoptotic events"}, {"measurement": "tumor growth", "setting": "sarcoma S-180; mouse, in vivo, po", "value": "significant reduction in tumor growth"}]}, {"molecule": "CC(C)=CCc1cc(/C=C/C(=O)O)ccc1O", "note": "[drupanin]", "values": [{"measurement": "apoptotic events", "setting": "[1]; HL60 (Akao et al 2008)", "value": "induce apoptotic events"}, {"measurement": "apoptotic events", "setting": "[2]; SW480 (Akao et al 2008)", "value": "induce apoptotic events"}, {"measurement": "tumor growth", "setting": "sarcoma S-180; oral administration, mice with sarcoma S-180 (Mishima et al 2005)", "value": "significant reduction in tumor growth"}]}, {"molecule": "O=c1c(O)c(-c2ccc(O)c(O)c2)oc2cc(O)cc(O)c12", "note": "[quercetin]", "values": [{"measurement": "methylation of substrate", "setting": "CsOMT21", "value": "able to methylate"}, {"measurement": "methylation of substrate", "setting": "CsOMT6", "value": "preferred methylation"}]}, {"molecule": "CsOMT1 (recombinant O-methyltransferase, SEQ ID NO: 7, PK03555; 6×His-tagged, expressed in E. coli) (Cannabis sativa) (protein) MEADGEDAVLRGQVEIWKYMLSFADSMALKCAVELQLADIIHSHTSPITLSQIASAIPGATSPDLSCLARIMRLLVRRRIFTQHQKPKSDGEEEEALYGPTHSSRWLLTKTNDHDQLTLAPMILMENDPRLMAPWHCFSRCVKEGGVAFKKAHNGQSIWEFGAENPEINKLFNDAMECTAKVVMKAILSHYSDGGFSDIKSMVDVGGGTGGSISEIVRSYPHIKGINFDLPHVIATAPPYSGVSHVGGDMFRSVPTADAIFMKWILHDWSDEDCVKILKNCRKAIAEESGKVIIVESVLEEESNNNNNNNEVFGDTALMLDLVMVAHTTGGKERTQKQWKTILEQGGFPRYNFIKIKALPSIIEAYPN", "values": [{"measurement": "Km", "setting": "[3]", "value": "22.2 ± 4.6", "unit": "µM"}]}]}
